According to patent US10376531B2, “Substituted-6,8-dioxabicyclo[3.2.1]octane-2,3-diol compounds as targeting agents of ASGPR” (Pfizer Inc., priority 2014, dated 2019):
Several values for one entry are separate records, joined by “and”; a condition that tells them apart may be missing. Equal entries are not always repeated.

Target: Biotinylated ASGPR (ASGPr H1 wild type) (Homo sapiens (Human), UniProt P07306)
Test: Surface plasmon resonance (SPR) binding assay
Conditions: Biacore 3000, 25° C, immobilized biotinylated ASGPR, each run separately reported or n and standard deviation noted, steady state fit for compounds and single conjugates, kinetic fit for multimeric conjugates
Protocol: Preparation of Biotinylated ASGPR:
ASGPr H1 wild type was expressed as an insoluble inclusion body (IB) in E. coli. The cell pellet was re-suspended in TBS buffer pH 8.0 with 0.1 mg/mL lysozyme+25 microg/mL DNase+10 microg/mL RNase+10 mM MgCl2 and stirred on ice until well blended. The mixture was passed through a microfluidizer twice and centrifuged 30 minutes at 30,000×g. The resultant IB pellet was washed with TBS buffer pH 8.0+3M urea and centrifuged and this process was repeated three additional times with water. The IB pellet was
solubilized in 10 mM Tris+8M urea+100 mM β-mercaptoethanol (pH 8.5), stirred for approximately 20 minutes, then centrifuged to discard any precipitate. For the following manipulations, “buffer T” refers to 20 mM Tris+0.5 M NaCl+25 mM CaCl2. The supernatant was diluted to approximately 0.5 mg/mL in buffer T+2 mM β-mercaptoethanol+8M urea (pH 8.0), then dialysed vs. 8-10× excess volume of buffer T+2 mM β-mercaptoethanol+2 M urea (pH 8.0) overnight at 4° C. Dialysis was repeated in buffer T+1 mM β-mercaptoethanol+1 M urea (pH 8.0) for approximately 24 h at 4° C. with several volume changes with a final dialysis vs. buffer T+5 mM GSH+1 mM GSSG (pH 7.5) with 3 volume changes. The resulting sample was centrifuged and the supernatant was loaded onto an N-acetyl-D-galactosamine agarose packed Pharmacia XK 26 column, equilibrated in buffer T+2 mM TCEP (pH 8.0). The column was washed with this buffer until baseline was re-established. The bound protein was eluted with 20 mM Tris+0.5 M NaCl+2 mM TCEP+2 mM EDTA (pH 8.0). The final yield was approximately 50 mg from 5 L (70 wgm.) E. coli cell pellet. While BSA has one cysteine (Cys34) not engaged in disulfide bonding, this thiol group is often blocked as a mixed disulfide with small thiols such as cysteine, or as the sulfenic acid by aerobic oxidation. […] Mild disulfide reduction conditions were chosen so as not to disrupt buried intra-strand (solvent inaccessible) crosslinks. Thus, immediately prior to biotinylation, the ASGPR sample was first incubated with 1 mM TCEP to ensure that the sample contained a single free thiol. The protein was reacted with a 19-fold molar excess of Pierce Maleimide-PEG2-biotin reagent in PBS overnight at 4° C. Excess biotin was removed from the sample using either PD-10 columns (GE Healthcare) or Zeba Spin Desalting columns (Thermo/Pierce) using manufacturer protocols. LC-MS analysis of the product verified the presence of a single mass with addition of 525 amu consistent with the molecular weight of the maleimide adduct. […] No such outcomes were observed. […] SPR Binding Measurements:
All SPR measurements with compounds were performed using a Biacore 3000 (GE Healthcare) at 25° C. Biotinylated ASGPR was immobilized typically at 2000-3000 resonance units (Ru) using either SA sensor chips (GE Healthcare) or custom sensor chips with Neutravidin (Pierce Biochemical) immobilized by standard amine coupling to CM5 sensor chips (GE Healthcare). The running buffer was HBS (10 mM HEPES, 150 mM NaCl), 20 mM CaCl2, 0.01% p20, 3% DMSO or 50 mM tris, 150 mM NaCl, 50 mM CaCl2), 0.01% p20, 3% DMSO pH 7.5. Compounds were diluted into running buffer at a concentration of 900 uM and serially diluted 3 fold to 3.7 uM. Compound solutions were injected at 50 ul/min for 1 min followed by a 1 min dissociation in duplicate for each concentration. For the multimeric conjugates (dimers, trimers), the conjugates were diluted in running buffer to concentrations of 100 nM or 10 nM and serially diluted. Conjugates were injected for 2 min and off rates were detected for 300 or 600 sec. After completion of off phase data the compounds were displaced using an injection of 900 uM GalNAc returning the receptor surface to the free state. All data was processed using Scrubber2 (Biologic Software, Inc.) to zero, align, reference and correct for excluded volume effects. […]

Chain of Biotinylated ASGPR (ASGPr H1 wild type) (P07306 161-278): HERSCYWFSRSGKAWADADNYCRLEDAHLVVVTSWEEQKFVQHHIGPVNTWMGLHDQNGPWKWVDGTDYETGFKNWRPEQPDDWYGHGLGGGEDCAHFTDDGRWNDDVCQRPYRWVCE

Kd | Structure (SMILES)
199 µM and 240 µM and 260 µM and 300 µM | CO[C@H]1OC(CO)(CO)[C@H](O)[C@H](O)[C@H]1NC(C)=O [II-b]
5.3 µM and 3.4 µM and 2.6 µM | CCOC[C@@]12CO[C@@H](O1)[C@H](NC(C)=O)[C@@H](O)[C@H]2O [Compound 17, N-[(1S,2R,3R,4R,5S)-1-(ethoxymethyl)-2,3-dihydroxy-6,8-dioxabicyclo[3.2.1]oct-4-yl]acetamide]
2.18 µM and 3.8 µM and 4.2 µM | CCCCCOC[C@@]12CO[C@@H](O1)[C@H](NC(C)=O)[C@@H](O)[C@H]2O [Compound 20, N-{(1S,2R,3R,4R,5S)-2,3-dihydroxy-1-[(pentyloxy)methyl]-6,8-dioxabicyclo[3.2.1]oct-4-yl}acetamide]
6.9 µM and 11.6 µM and 8.8 µM and 15.9 µM and 11.7 µM and 6.4 µM | CC(=O)N(C)[C@H]1[C@H]2OC[C@](CO)(O2)[C@H](O)[C@@H]1O [Compound 29, N-[(1S,2R,3R,4R,5S)-2,3-dihydroxy-1-(hydroxymethyl)-6,8-dioxabicyclo[3.2.1]oct-4-yl]-N-methylacetamide]
3.4 µM and 1.8 µM | CCCCCCOC[C@@]12CO[C@@H](O1)[C@H](NC(C)=O)[C@@H](O)[C@H]2O [Compound 21, N-{(1S,2R,3R,4R,5S)-1-[(hexyloxy)methyl]-2,3-dihydroxy-6,8-dioxabicyclo[3.2.1]oct-4-yl}acetamide]
60 µM and 96 µM and 140 µM and 110 µM and 149 µM and 117 µM | CS(=O)(=O)N[C@H]1[C@H]2OC[C@](CO)(O2)[C@H](O)[C@@H]1O [Compound 26, N-[(1S,2R,3R,4R,5S)-2,3-dihydroxy-1-(hydroxymethyl)-6,8-dioxabicyclo[3.2.1]oct-4-yl]methanesulfonamide]
9 µM | [N-]=[N+]=N[C@H]1[C@H]2OC[C@](CO)(O2)[C@H](O)[C@@H]1O [Compound 1, (1S,2R,3R,4R,5S)-4-azido-1-(hydroxymethyl)-6,8-dioxabicyclo[3.2.1]octane-2,3-diol]
7.18 µM | CC(=O)N[C@H]1[C@H]2OC[C@](CO)(O2)[C@H](O)[C@@H]1O [Compound 3, N-((1S,2R,3R,4R,5S)-2,3-dihydroxy-1-(hydroxymethyl)-6,8-dioxabicyclo[3.2.1]octan-4-yl)acetamide]
110 µM and 83 µM and 210 µM and 240 µM and 132 µM and 192 µM | CN([C@H]1[C@H]2OC[C@](CO)(O2)[C@H](O)[C@@H]1O)S(C)(=O)=O [Compound 30, N-[(1S,2R,3R,4R,5S)-2,3-dihydroxy-1-(hydroxymethyl)-6,8-dioxabicyclo[3.2.1]oct-4-yl]-N-methylmethanesulfonamide]
1.2 µM and 1.8 µM and 2.1 µM and 1.4 µM and 2.4 µM and 2.9 µM | O=C(CC(F)(F)F)N[C@H]1[C@H]2OC[C@](CO)(O2)[C@H](O)[C@@H]1O [Compound 28, N-[(1S,2R,3R,4R,5S)-2,3-dihydroxy-1-(hydroxymethyl)-6,8-dioxabicyclo[3.2.1]oct-4-yl]-3,3,3-trifluoropropanamide]
5.5 µM and 7.2 µM and 6.7 µM | COCCOCCOCCOCCOC[C@@]12CO[C@@H](O1)[C@H](NC(C)=O)[C@@H](O)[C@H]2O [Compound 22, N-[(1S,2R,3R,4R,5S)-2,3-dihydroxy-1-(2,5,8,11,14-pentaoxapentadec-1-yl)-6,8-dioxabicyclo[3.2.1]oct-4-yl]acetamide]
2.8 µM and 3.8 µM and 3.1 µM and 2.3 µM | CCCOC[C@@]12CO[C@@H](O1)[C@H](NC(C)=O)[C@@H](O)[C@H]2O [Compound 18, N-[(1S,2R,3R,4R,5S)-2,3-dihydroxy-1-(propoxymethyl)-6,8-dioxabicyclo[3.2.1]oct-4-yl]acetamide]
0.7 µM and 1.9 µM and 1.2 µM and 1 µM and 1.5 µM and 0.5 µM | O=C(N[C@H]1[C@H]2OC[C@](CO)(O2)[C@H](O)[C@@H]1O)C(F)F [Compound 27, N-[(1S,2R,3R,4R,5S)-2,3-dihydroxy-1-(hydroxymethyl)-6,8-dioxabicyclo[3.2.1]oct-4-yl]-2,2-difluoroacetamide]

Structure (SMILES) | Kd
CCC(=O)N[C@H]1[C@H]2OC[C@](CO)(O2)[C@H](O)[C@@H]1O [Compound 25, N-[(1S,2R,3R,4R,5S)-2,3-dihydroxy-1-(hydroxymethyl)-6,8-dioxabicyclo[3.2.1]oct-4-yl]propanamide] | 2.2 µM and 3 µM and 2.7 µM and 3.2 µM and 4.3 µM
CCCCOC[C@@]12CO[C@@H](O1)[C@H](NC(C)=O)[C@@H](O)[C@H]2O [Compound 19, N-[(1S,2R,3R,4R,5S)-1-(butoxymethyl)-2,3-dihydroxy-6,8-dioxabicyclo[3.2.1]oct-4-yl]acetamide] | 3.3 µM and 3.2 µM and 7.7 µM
O=C(N[C@H]1[C@H]2OC[C@](CO)(O2)[C@H](O)[C@@H]1O)C(F)(F)F [Compound 24, N-[(1S,2R,3R,4R,5S)-2,3-dihydroxy-1-(hydroxymethyl)-6,8-dioxabicyclo[3.2.1]oct-4-yl]-2,2,2-trifluoroacetamide] | 1.1 µM and 2 µM and 2.3 µM and 1.4 µM (2×) and 700 nM and 800 nM and 1.6 µM
CN(C(=O)OC(C)(C)C)[C@H]1[C@H]2OC[C@](CO)(O2)[C@H](O)[C@@H]1O [Compound 31, tert-butyl [(1S,2R,3R,4R,5S)-2,3-dihydroxy-1-(hydroxymethyl)-6,8-dioxabicyclo[3.2.1]oct-4-yl]methylcarbamate] | 14 µM and 10.6 µM and 15.6 µM and 17.3 µM
